Test results reported in patent US8614064B2, “Methods of diagnosing atherosclerosis by measuring ApoCI” (The Johns Hopkins University, priority 2003, dated 2013).

Tests used:
[1] = tested on: cytochrome c; assay: Immunofluorescence of cytochrome c in human cultured aortic smooth muscle cells; format: cell-based; settings: 24 h
Protocol: FIGS. 5A-5C depict the effect of ApoCI, ApoCIII, ApoCI-enriched HDL, and GW4869 on cytochrome c release in ASMC. After treatment of confluent cells for 24 hours with ApoCI (2.5 μg/mL medium), ApoCIII (2.5 μg/mL medium), or ApoCI-enriched HDL (1 μg apoA-I/mL medium), the cells were lysed. The cell lysate was used as the source of cytochrome c, and the pellet was used as a source of caspase-3. The cell lysates were separated by SDS-polyacrylamide gel electrophoresis, blotted onto nitrocellulose, and cytochrome c detected using a polyclonal antibody against cytochrome c (FIG. 5A, top panel). The gels were then subjected to densitometric scanning (FIG. 5B, middle panel). In a separate experiment (FIG. 5C, right), confluent cells were grown on cover slips and pretreated with serum-free medium for 30 minutes. The cells were then incubated with control medium, ApoCI (2.5 μg/mL medium), TNF-α (20 ng/mL), or ApoCI (2.5 μg/mL)+GW4869 (20 μmol/L) for 24 hours. The cells were then washed, treated with a primary anti-cytochrome c antibody, washed with phosphate-buffered saline, and treated with a fluorescein isothiocyanate-conjugated anti-rabbit IgG (FIG. 5C, lower panel).
AOSMC (5×10^3) were grown on cover slips to confluence and pretreated with serum free medium for 30 min as described above. […]

[2] = tested on: ceramide; assay: Measurement of the ceramide level (diacylglycerol kinase assay) in ASMC; format: cell-based, human
Protocol: FIGS. 4A-4D depict the effect of ApoCI, ApoCI-enriched HDL, and ApoCI-poor HDL on the level of ceramide in ASMC. Confluent ASMC were incubated with ApoCI (2.5 μg/mL) with time (FIG. 4A, upper left) or with ApoCI-enriched HDL (1 μg apoA-I/mL medium) or ApoCI-poor HDL (5 μg apoA-I/mL medium) (FIG. 4B, upper right) for 30 minutes. FIG. 4C: The cells were incubated with ApoCI alone ([…]) for 5 minutes or preincubated with GW4869 (20 μmol/L) for 30 minutes. After addition of ApoCI (2.5 μg/mL), incubation was continued for 6 hours, 12 hours, and 24 hours. After incubation, cells were harvested and the levels of ceramide determined using the diacylglycerol kinase assay. The level of phosphate was measured and the data (mean±SD) were expressed as percentage of the total ceramide present in untreated cells (vehicle DMSO). *P<0.05. In a separate experiment (FIG. 4D, right), confluent cells were grown on cover slips and pretreated with serum-free medium for 30 minutes. The cells were then incubated with vehicle DMSO alone (control), ApoCI (2.5 μg/ML), or ApoCI (2.5 μg/mL) plus the N-SMase inhibitor GW4869 (20 μmol/L) for 24 hours. The cells were then washed, treated with a primary anticeramide antibody, washed with phosphate-buffered saline, and treated with a fluorescein isothiocyanate-conjugated anti-mouse IgG (FIG. 4C, lower panel).
Cells were pelleted and extracted with chloroform-methanol-acetic acid 100:100:2 (v/v/v). Lipids in organic phase were dried in N2 atmosphere and re-extracted, and the organic phase was dried. Detergent solution (30 μl of 7.5%/n-octyl-β-glucopyranoside with 5 mM cardiolipin in 1 mM diethylenimine-pentaacetic acid) was added, and the samples were sonicated. Total inorganic phosphate level was measured employing the method of Bartlett et al. Bartlett, G R. (1959). J. Biol. Chem. 234, 449-458). Ceramide was measured using the sn-1, 2-diacylglycerolkinase-assay reagent system and labeling for 30 min with 1 mCi of [^32P] ATP in 10 μl of 5 mM ATP (Signorelli, P., and Hannun, Y. A. (2002) Meth. Enzymol. 345, 275-294). Diacylglycerol kinase was from Streptomyces species (Calbiochem, San Diego, Calif.). [^32P] ATP (specific activity 3000 Ci/mmol) was from New England Nuclear Company (Boston, Mass.). Ceramide-1-phosphate and diacylglycerol-1-phosphate were resolved by thin-layer chromatography on silica gel plates (Whatman, Clinton, N.J.), using a solvent composed of chloroform-acetone-methanol-acetic acid-water 10:4:3:2:1(v/v) and detected by autoradiography using an Instant Imager (Packard Canberra Company). Ceramide was expressed as pmol ceramide/nmol phosphate.

Row | maximum increase in ceramide level by ApoCI ([2]; ApoCI 2.5 μg/mL, by 5 minutes) | effect of GW4869 on ApoCI-induced ceramide production, 24 hours ([2]; GW4869 20 μmol/L, 24 hours) | effect of GW4869 on cellular level of ceramide induced by ApoCI, 5 minutes and 6 hours ([2]; GW4869 20 μmol/L, after 5 minutes and 6 hours of incubation) | effect of GW4869 on ApoCI-induced ceramide production, 12 hours ([2]; GW4869 20 μmol/L, after 12 hours of incubation) | Molecule | release of cytochrome c from mitochondria into the cytoplasm (immunofluorescence) ([1]; ApoCI 2.5 μg/mL) | effect of GW4869 on ApoCI-induced cytochrome c release (immunofluorescence) ([1]; ApoCI 2.5 μg/mL + GW4869 20 μmol/L)
1 | 1.7 fold |  |  |  | Apolipoprotein C-I (TPDVSSALDKLKEFGNTLEDKARELISRIKQSELSAKMREWFSETFQKVKEKLKIDS; UniProt P02654 27-83, looked up) [ApoCI, 6.6-kDa single-chain plasma protein of 57 amino acids; purified human ApoCI purchased from Academy Bio-Medical Company] | marked increase | 
2 |  | reversed it to a high level | significantly decreased | completely inhibited | O=C(/C=C/c1ccc(/C=C/C(=O)Nc2ccc(C3=NCCN3)cc2)cc1)Nc1ccc(C2=NCCN2)cc1 [GW4869] |  | inhibited
